The values that follow are results of earlier work, collected in PubChem BioAssay AID1259410 (Chemical Carcinogenesis Research Information System (CCRIS), 2018).

Square brackets hold non-standard residues; d marks the D form. Peptide text beside a SMILES is read from it. sY = N[C@@H](Cc1ccc(OS(=O)(=O)O)cc1)C(=O)O; pGlu = O=C1CC[C@@H](C(=O)O)N1

The test system of this data set is rodent tumor promotion studies, tumor incidence. Description: CCRIS tumor promotion studies.

Regarding `CNC(=O)Oc1ccccc1OC(C)C`, the outcome was “skin: tumor” (Carcinogen: 7,12-DIMETHYLBENZ[A]ANTHRACENE, 57-97-6, Doses [Carcinogen]: 52 UG IN 100 µL ACETONE ONCE, Doses [Promoter]: 0, 100 MG/KG BW IN 100 µL ACETONE 3/WK FOR 51 WK BEGINNING 1/WK POST CARCINOGEN DOSE (STUDY DURATION: 52 WK), Route [Carcinogen]: DERMAL, Route [Promoter]: DERMAL, Species: MOUSE, Strain/Sex: SWISS/FEMALE) and “skin: tumor” (Carcinogen: 7,12-DIMETHYLBENZ[A]ANTHRACENE, 57-97-6, Doses [Carcinogen]: 52 UG IN 100 µL ACETONE ONCE, Doses [Promoter]: 0, 100 MG/KG BW IN 100 µL ACETONE 3/WK FOR 51 WK BEGINNING 1 WK POST CARCINOGEN DOSE (STUDY DURATION: 52 WK), Route [Carcinogen]: DERMAL, Route [Promoter]: DERMAL, Species: MOUSE, Strain/Sex: SWISS/MALE).
For `c1c[nH]cn1`, the outcome (Carcinogen: N-METHYL-N-NITROSOUREA, 684-93-5, Doses [Carcinogen]: 40 MG/KG ONCE, Doses [Promoter]: 1000 MG/KG OF HIGH (20%) FAT DIET BEGINNING 1 WK POST CARCINOGEN DOSE AND CONTINUING FOR DURATION OF STUDY (STUDY DURATI, Route [Carcinogen]: SUBCUTANEOUS, Route [Promoter]: ORAL, Species: RAT, Strain/Sex: SPRAGUE-DAWLEY/FEMALE) was “mammary gland: tumor”.
On to `CC(O)(CS(=O)(=O)c1ccc(F)cc1)C(=O)Nc1ccc(C#N)c(C(F)(F)F)c1` (stereo not given), for which the outcome (Carcinogen: 3,2'-DIMETHYL-4-AMINOBIPHENYL, 13394-86-0, Doses [Carcinogen]: 50 MG/KG BW ONCE/2 WK FOR FIRST 20 WK, Doses [Promoter]: 0, 10, 30 MG/KG BW BY GAVAGE 3X/WK FOR 40 WK BEGINNING 20 WK POST CARCINOGEN TREATMENT (STUDY DURATION: 60 WK), Doses [Promoter]: 0, 10, 30 MG/KG BW BY GAVAGE 3X/WK FOR 40 WK BEGINNING 20 WK POST CARCINOGEN TREATMENT (STUDY DURATION: 60 WK), Route [Carcinogen]: SUBCUTANEOUS, Route [Promoter]: ORAL, Species: RAT, Strain/Sex: F344/MALE) is listed as “prostate (ventral): adenocarcinoma”.
Consider `CCCCCCCCCCO`, for which the outcome (Carcinogen: 7,12-DIMETHYLBENZ(A)ANTHRACENE, Doses [Carcinogen]: TOP, Route [Carcinogen]: DERMAL, Route [Promoter]: DERMAL, Species: MOUSE, Strain/Sex: FEMALE) was “integumentary system (skin)”.
`CCCCCCCCCC(=O)O[C@@]12C[C@@H](C)[C@@]3(O)[C@@H](C=C(CO)C[C@]4(O)C(=O)C(C)=C[C@@H]34)[C@@H]1C2(C)C`: under “Carcinogen: 7,12-DIMETHYLBENZ[A]ANTHRACENE, 57-97-6, Doses [Carcinogen]: 100 NMOL ONCE, Doses [Promoter]: 0, 40 NMOL 2/WK FOR 48 WK (STUDY DURATION: 48 WK), Route [Carcinogen]: DERMAL, Route [Promoter]: DERMAL, Species: MOUSE, Strain/Sex: NMRI”, the outcome is reported as “skin: tumor”.
`CC(=O)O`: where the note is “Carcinogen: LEAD SUBACETATE, 1335-32-6, Doses [Carcinogen]: 1% IN DIET FOR 18 MO, Doses [Promoter]: 0, 0.3, 1, 3, 6% IN DIET FOR 18 MO (STUDY DURATION: 79 WK), Doses [Promoter]: 0, 0.3, 1, 3, 6% IN DIET FOR 18 MO (STUDY DURATION: 79 WK), Route [Carcinogen]: ORAL, Route [Promoter]: ORAL, Species: RAT, Strain/Sex: SPRAGUE-DAWLEY/MALE”, the outcome was “kidney: tumor”.
Regarding `OCl`, the outcome (Carcinogen: 4-NITROQUINOLINE-1-OXIDE, Doses [Carcinogen]: TOP, Route [Carcinogen]: DERMAL, Route [Promoter]: DERMAL, Species: MOUSE, Strain/Sex: FEMALE) was “integumentary system (skin)”.
Regarding `O=S1(=O)N=C(O)c2ccccc21`, the outcome by setting is: (Carcinogen: N-[4-(5-NITRO-2-FURYL)-2-THIAZOLYL]FORMAMIDE, 24554-26-5, Doses [Carcinogen]: 0.2% IN DIET FOR 6 WK, Doses [Promoter]: 0, 3.12% IN PROLAB DIET FOR 72 WK BEGINNING POST CARCINOGEN TREATMENT (STUDY DURATION: 78 WK), Route [Carcinogen]: ORAL, Route [Promoter]: ORAL, Species: RAT, Strain/Sex: F344/MALE) “urinary bladder: carcinoma”; (Carcinogen: N-[4-(5-NITRO-2-FURYL)-2-THIAZOLYL]FORMAMIDE, 24554-26-5, Doses [Carcinogen]: 0.2% IN DIET FOR 6 WK, Doses [Promoter]: 0, 5.2% IN PROLAB DIET FOR 72 WK BEGINNING POST CARCINOGEN TREATMENT (STUDY DURATION: 78 WK), Route [Carcinogen]: ORAL, Route [Promoter]: ORAL, Species: RAT, Strain/Sex: F344/MALE) “urinary bladder: carcinoma, carcinoma or papilloma”.
Turning to `CCOC(N)=O`, under “Carcinogen: 7,12-DIMETHYLBENZ(A)ANTHRACENE, 57-97-6, Doses [Carcinogen]: 51.2 UG IN 100 UG ACETONE ONCE, Doses [Promoter]: 0, 10% IN ACETONE 2/WK FOR 50 WK BEGINNING 2 WK POST CARCINOGEN DOSE (STUDY DURATION: 52 WK), Route [Carcinogen]: DERMAL, Route [Promoter]: DERMAL, Species: MOUSE, Strain/Sex: HR/HR/MALE,FEMALE”, the outcome is listed as “skin: papilloma”.
For the compound `CSCC[C@H](NC(=O)[C@H](Cc1c[nH]c2ccccc12)NC(=O)CNC(=O)[C@@H](NC(=O)[C@H](Cc1ccc(OS(=O)(=O)O)cc1)NC(=O)[C@H](CC(=O)O)NC(=O)[C@H](CCC(N)=O)NC(=O)[C@@H]1CCC(=O)N1)[C@@H](C)O)C(=O)N[C@@H](CC(=O)O)C(=O)N[C@@H](Cc1ccccc1)C(N)=O` ([pGlu]QD[sY]TGWMDF-NH2), the outcome (Carcinogen: 7,12-DIMETHYLBENZ[A]ANTHRACENE, 57-97-6, Doses [Carcinogen]: 2-3 MG ONCE, Doses [Promoter]: 0, 5 UG/KG 2/D FOR 15 D POST CARCINOGEN TREATMENT (STUDY DURATION: 6 MO), Route [Carcinogen]: PANCREATIC IMPLANT, Route [Promoter]: SUBCUTANEOUS, Species: RAT, Strain/Sex: SPRAGUE-DAWLEY/MALE) was “pancreas: carcinoma”; the outcome (Carcinogen: N-METHYL-N'-NITRO-N-NITROSOGUANIDINE, 70-25-7, Doses [Carcinogen]: 50 UG/ML IN DRINKING WATER FOR 20 WK, Doses [Promoter]: 0, 10 UG/KG IN OLIVE OIL 1/2 D FOR 20 WK BEGINNING 3 D AFTER CARCINOGEN DOSE (STUDY DURATION: 52 WK), Route [Carcinogen]: ORAL, Route [Promoter]: SUBCUTANEOUS, Species: RAT, Strain/Sex: WISTAR/MALE) is “glandular stomach: adenocarcinoma”; the outcome (Carcinogen: N-METHYL-N'-NITRO-N-NITROSOGUANIDINE, 70-25-7, Doses [Carcinogen]: 50 UG/ML IN DRINKING WATER FOR 25 WK, Doses [Promoter]: 2 UG/KG IN OLIVE OIL 1/2 D FOR 27 WK ADMINISTERED POST CARCINOGEN DOSE (STUDY DURATION: 52 WK), Route [Carcinogen]: ORAL, Route [Promoter]: SUBCUTANEOUS, Species: RAT, Strain/Sex: WISTAR/MALE) is recorded as “stomach: adenocarcinoma”.
As for `CSCC[C@H](NC(=O)[C@H](Cc1ccccc1)NC(=O)CNC(=O)CNC(=O)[C@@H](N)Cc1ccc(O)cc1)C(=O)O`, the outcome is listed as “colon: tumor” (Carcinogen: AZOXYMETHANE, 25843-45-2, Doses [Carcinogen]: 7.4 MG/KG IN 0.9% SALINE 1/WK FOR 10 WK, Doses [Promoter]: 0, 50 UG/KG IN OLIVE OIL 1/2 D BEGINNING AT THE START OF CARCINOGEN TREATMENT AND CONTINUING FOR DURATION OF STUDY (STUD, Route [Carcinogen]: SUBCUTANEOUS, Route [Promoter]: SUBCUTANEOUS, Species: RAT, Strain/Sex: WISTAR/MALE) and “stomach: adenocarcinoma” (Carcinogen: N-METHYL-N'-NITRO-N-NITROSOGUANIDINE, 70-25-7, Doses [Carcinogen]: 25 UG/ML IN DRINKING WATER FOR 25 WK, Doses [Promoter]: 0, 20 UG/KG 1/2 D BEGINNING POST CARCINOGEN TREATMENT AND CONTINUING FOR THE DURATION OF STUDY (STUDY DURATION: 52 WK), Route [Carcinogen]: ORAL, Route [Promoter]: SUBCUTANEOUS, Species: RAT, Strain/Sex: WISTAR/MALE).
`C=C[C@@]1(C)CC[C@](C)(C(C)C)c2cc3c4c(c[nH]c4c21)C[C@@H](CO)NC(=O)[C@H](C(C)C)N3C`: the outcome is, setting by setting: (Carcinogen: 7,12-DIMETHYLBENZ[A]ANTHRACENE, 57-97-6, Doses [Carcinogen]: 100 UG ONCE, Doses [Promoter]: 0, 5.5 NMOL 2/WK FOR 19 WK BEGINNING 1 WK POST CARCINOGEN DOSE (STUDY DURATION: 20 WK), Route [Carcinogen]: DERMAL, Route [Promoter]: DERMAL, Species: MOUSE, Strain/Sex: CD-1/FEMALE) “skin: tumor”; (Carcinogen: 7,12-DIMETHYLBENZ[A]ANTHRACENE, Doses [Carcinogen]: 100 UG ONCE, Doses [Promoter]: 2.5 UG IN ACETONE 2/WK FOR 30 WK, Route [Carcinogen]: DERMAL, Route [Promoter]: DERMAL, Species: MOUSE, Strain/Sex: CD-1/FEMALE) “integumentary system (skin): papilloma, carcinoma”.
`C=Cc1c(C)c2[n-]c1=CC1=NC(=CC3=C(C)C(=C([O-])[O-])C(=N3)C(CC(=O)[O-])=C3N=C(C=2)C(C)C3CCC(=O)[O-])C(CC)=C1C.[Cu+2].[Na+].[Na+].[Na+]` (stereo not given): the outcome reads like this: (Carcinogen: 1,2-DIMETHYLHYDRAZINE, 540-73-8, Doses [Carcinogen]: 20 MG/KG/BW 1/WK FOR 5 WK, Doses [Promoter]: 0, 1.5 MILLIMOLAR IN DRINKING WATER BEGINNING POST CARCINOGEN TREATMENT AND CONTINUING FOR DURATION OF STUDY (STUDY DURA, Route [Carcinogen]: INTRAPERITONEAL, Route [Promoter]: ORAL, Species: RAT, Strain/Sex: F344/MALE) “colorectal: tumor”; (Carcinogen: 1,2-DIMETHYLHYDRAZINE, 540-73-8, Doses [Carcinogen]: 20 MG/KG/BW 1/WK FOR 5 WK, Doses [Promoter]: 0, 1.5 MILLIMOLAR IN DRINKING WATER THROUGHOUT THE STUDY (STUDY DURATION: 25 WK), Route [Carcinogen]: INTRAPERITONEAL, Route [Promoter]: ORAL, Species: RAT, Strain/Sex: F344/MALE) “colorectal: tumor”.
